Measured values reported in patent US20130029991A1, “New Phenylsulfamoyl Benzamide Derivatives as Bradykinin Antagonists” (priority 2006, published 2013).
Structures can show the parent of a compound that is named as a salt.

How the values were obtained:
[1] = molecular target: T1, recombinant human B1 receptors (Homo sapiens, UniProt P46663); assay: Functional assay: antagonist potency by cytosolic calcium measurement (fluo-4, plate reader fluorimeter) in CHO-B1 cells; assay type: cell-based; conditions: CHO-B1 cells, inhibition of LysDABK (EC80)-evoked [Ca2+]i elevation; read-out: B1 func.
T1 construct: host or cells: CHO (CHO-B1)
T1 sequence (P46663 1-353): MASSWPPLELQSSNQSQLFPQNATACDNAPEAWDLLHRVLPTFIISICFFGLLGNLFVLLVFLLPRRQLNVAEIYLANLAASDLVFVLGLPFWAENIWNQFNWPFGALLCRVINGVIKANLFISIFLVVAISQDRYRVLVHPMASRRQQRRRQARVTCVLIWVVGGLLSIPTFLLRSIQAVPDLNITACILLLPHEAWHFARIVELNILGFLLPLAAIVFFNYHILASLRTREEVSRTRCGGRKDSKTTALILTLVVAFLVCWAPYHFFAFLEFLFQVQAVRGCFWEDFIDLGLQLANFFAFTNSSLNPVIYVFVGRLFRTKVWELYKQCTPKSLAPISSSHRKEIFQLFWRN
Method: Assessment of Antagonist Potency at B1 and B2 Receptors In Vitro by Measurement of Cytosolic Calcium Ion Concentration with a Plate Reader Fluorimeter in Cells Expressing Recombinant Human B1 or B2 Receptors
Chinese hamster ovary (CHO) cells stably expressing recombinant human B1 (CHO-B1, Euroscreen) or B2 (CHO-B2, Perkin-Elmer) receptors were cultured in Dulbecco's Modified Eagle's Medium (DMEM) containing 10% Fetal Calf Serum (FCS), 100 U/ml penicillin, 0.1 mg/ml streptomycin, 0.25 μg/ml amphotericin B, 1% Minimum Essential Medium Eagle (MEM), non essential amino acid solution, […], 1% pyruvate (for the B2 cell line). Cells were kept at 37° C. in a humidified incubator in an atmosphere of 5% CO2/95% air and were passaged 1:4 three times a week. Cells were plated at 1.5-2.5×10^4 cell/well on standard 96-well microplates, measurements of cytosolic calcium ion concentration ([Ca^2+]i) were carried out 1-2 days after cell plating.
Measurements of [Ca^2+]i were carried out on CHO-B1 and CHO-B2 cells stably expressing human B1 and B2 receptors, respectively. Cells were grown in standard 96-well microplates and before the measurement were loaded with a fluorescent Ca^2+-sensitive dye, fluo-4/AM (2 μM): after removing the culture medium the dye was added to the cells (dissolved in assay buffer: 145 mM NaCl, 5 mM KCl, 2 mM MgCl2, 2 mM CaCl2, 10 mM HEPES, 20 mM D-glucose, 2 mM probenecid, 100 μl/well) and cells were incubated at 37° C. in a humidified incubator in an atmosphere of 5% CO2/95% air for 40-120 min. To stop dye loading cells were washed twice with assay buffer. After washing, various concentrations of the test compounds (diluted in extracellular medium from a DMSO stock solution, final DMSO concentration was <0.1%) or buffer were added to each well depending on the experimental setup. After incubation at 37° C. for 20-25 min. baseline and agonist-evoked changes of [Ca^2+]i were measured column by column with a plate reader fluorimeter (Fluoroskan Ascent, Labsystems). Excitation and detection of emission was carried out from the bottom of the plate. Filters used for Fluo-4: excitation filter—485 nm, emission filter—538 nm. The whole measurement process was performed at 37° C. and was controlled by custom software Inhibitory potency of the test compounds was assessed by measuring the reduction in the agonist-evoked [Ca^2+]i-elevation in the presence of different concentrations of the compounds. The agonists were LysDABK for CHO-B1, and bradykinin for CHO-B2 cells. Agonists were applied at an EC80 concentration, the EC80-values were derived from daily determined dose-response curves. Fluorescence data were expressed as ΔF/F (fluorescence change normalized to baseline). All treatments on a single plate were measured in multiple wells. Data from all wells with the same treatment were averaged and the average values were used for analysis. Inhibitory potency of a compound at a single concentration point was expressed as percent inhibition of the control agonist response. Sigmoidal concentration-inhibition curves were fitted to the data (derived from at least three independent experiments) and IC50-values were determined as the concentration that produces half of the maximal inhibition caused by the compound.

[2] = molecular target: T2, human recombinant bradykinin B1 receptor (Homo sapiens, UniProt P46663); assay: Human recombinant bradykinin B1 receptor binding; conditions: CHO cell membranes, [3H]-[Des-Arg10] Kallidin radioligand; read-out: B1 binding
T2 construct: host or cells: CHO cells
T2 sequence (P46663 1-353): T1 sequence (P46663 1-353)
Method: 1. Human Recombinant Bradykinin B1 Receptor Binding
Binding assays were carried out on human recombinant bradykinin) receptors (expressed in CHO cells) according to the Euroscreen Technical Data Sheet (Cat.No.:ES-091). 20 μg protein/tube was incubated with [3,4-prolyl-3,4-^3H(N)]-[Des-Arg^10] Kallidin as radioligand. Non specific binding was determined in the presence of 10 μM Lys-des-Arg^9-Bradykinin. The final incubation volume was 250 μl. Samples were incubated for 15 min. at 25° C. then were rapidly vacuum filtered through GF/B filters presoaked for at least 1 h in 0.5% PEI. Radioactivity was determined by liquid scintillation spectroscopy.

| IC50 [1] [nM] | Ki [2] [nM] | SMILES |
| --- | --- | --- |
| < 20 | < 20 | O=C(CNC(=O)c1ccc(S(=O)(=O)Nc2ccccc2Oc2ccc(Cl)cc2Cl)cc1)NCCC1CCNCC1 [Example 22, 4-[2-(2,4-Dichloro-phenoxy)-phenylsulfamoyl]-N-[(2-piperidin-4-yl-ethylcarbamoyl)-methyl]-benzamide acetate] |
| < 20 | < 20 | O=C(CNC(=O)c1ccc(S(=O)(=O)Nc2ccccc2Oc2ccc(Cl)cc2Cl)cc1)NCCN1CCCCC1 [Example 23, 4-[2-(2,4-Dichloro-phenoxy)-phenylsulfamoyl]-N-[(2-piperidin-1-yl-ethylcarbamoyl)-methyl]-benzamide] |
| < 20 | < 20 | CN(C)CCCNC(=O)CNC(=O)c1ccc(S(=O)(=O)Nc2ccccc2Oc2ccc(Cl)cc2Cl)cc1 [Example 25, 4-[2-(2,4-Dichloro-phenoxy)-phenylsulfamoyl]-N-[(3-dimethylamino-propylcarbamoyl)-methyl]-benzamide] |
| < 20 | < 20 | O=C(CNC(=O)c1ccc(S(=O)(=O)Nc2ccccc2Oc2ccc(Cl)cc2Cl)cc1)NCCCN1CCOCC1 [Example 27, 4-[2-(2,4-Dichloro-phenoxy)-phenylsulfamoyl]-N-[(3-morpholin-4-yl-propylcarbamoyl)-methyl]-benzamide] |
| < 20 | < 20 | CC1CCCCN1CCCNC(=O)CNC(=O)c1ccc(S(=O)(=O)Nc2ccccc2Oc2ccc(Cl)cc2Cl)cc1 (stereo not shown) [Example 28, 4-[2-(2,4-Dichloro-phenoxy)-phenylsulfamoyl]-N-{[3-(2-methyl-piperidin-1-yl)-propylcarbamoyl]-methyl}-benzamide] |
| < 20 | < 20 | O=C(CNC(=O)c1ccc(S(=O)(=O)Nc2ccccc2Oc2ccc(Cl)cc2Cl)cc1)NCCCn1ccnc1 [Example 29, 4-[2-(2,4-Dichloro-phenoxy)-phenylsulfamoyl]-N-[(3-imidazol-1-yl-propylcarbamoyl)-methyl]-benzamide] |
| < 20 | < 20 | O=C(CNC(=O)c1ccc(S(=O)(=O)Nc2ccccc2Oc2ccc(Cl)cc2Cl)cc1)NCCN1CCOCC1 [Example 30, 4-[2-(2,4-Dichloro-phenoxy)-phenylsulfamoyl]-N-[(2-morpholin-4-yl-ethylcarbamoyl)-methyl]-benzamide] |
| < 20 | < 20 | O=C(CNC(=O)c1ccc(S(=O)(=O)Nc2ccccc2Oc2ccc(Cl)cc2Cl)cc1)NCCN1CCCC1 [Example 31, 4-[2-(2,4-Dichloro-phenoxy)-phenylsulfamoyl]-N-[(2-pyrrolidin-1-yl-ethylcarbamoyl)-methyl]-benzamide] |
| < 20 | < 20 | O=C(CNC(=O)c1ccc(S(=O)(=O)Nc2ccccc2Oc2ccc(Br)cc2Cl)cc1)NCC1CCNCC1 [Example 37, 4-[2-(4-Bromo-2-chloro-phenoxy)-phenylsulfamoyl]-N-{[(piperidin-4-ylmethyl)-carbamoyl]-methyl}-benzamide hydrochloride] |
| < 20 | < 20 | N=C(N)NCc1ccc(CNC(=O)CNC(=O)c2ccc(S(=O)(=O)Nc3ccccc3Oc3ccc(Cl)cc3Cl)cc2)cc1 [Example 39, 4-[2-(2,4-Dichloro-phenoxy)-phenylsulfamoyl]-N-[(4-guanidinomethyl-benzylcarbamoyl)-methyl]-benzamide hydrochloride] |
| < 20 | < 20 | O=C(CNC(=O)c1ccc(S(=O)(=O)Nc2ccccc2Oc2ccccc2)cc1)NCCCN1CCC(N2CCCCC2)CC1 [Example 48, N-[(3-[1,4′]Bipiperidinyl-r-yl-propylcarbamoyl)-methyl]-4-(2-phenoxy-phenylsulfamoyl)-benzamide] |
| < 20 | < 20 | O=C(CNC(=O)c1ccc(S(=O)(=O)Nc2ccccc2Oc2ccccc2)cc1)Nc1ccc(N2CCC(N3CCCCC3)CC2)cc1 [Example 49, N-[(4-[1,4′]Bipiperidinyl-1′-yl-phenylcarbamoyl)-methyl]-4-(2-phenoxy-phenylsulfamoyl)-benzamide] |
| < 20 | < 20 | O=C(CNC(=O)c1ccc(S(=O)(=O)Nc2ccccc2Oc2ccccc2)cc1)N[C@H]1CC[C@H](CCN2CCCC2)CC1 [Example 50, trans-4-(2-Phenoxy-phenylsulfamoyl)-N-{[4-(2-pyrrolidin-1-yl-ethyl)-cyclohexyl-carbamoyl]-methyl}-benzamide] |
| < 20 | < 20 | CN(C)CCCNC(=O)CNC(=O)c1ccc(S(=O)(=O)Nc2ccccc2Oc2ccccc2)cc1 [Example 54, N-[(3-Dimethylamino-propylcarbamoyl)-methyl]-4-(2-phenoxy-phenylsulfamoyl)-benzamide] |
| < 20 | < 20 | CC1CCCCN1CCCNC(=O)CNC(=O)c1ccc(S(=O)(=O)Nc2ccccc2Oc2ccccc2)cc1 (stereo not shown) [Example 56, N-{[3-(2-Methyl-piperidin-1-yl)-propylcarbamoyl]-methyl}-4-(2-phenoxy-phenylsulfamoyl)-benzamide] |
| < 20 | < 20 | O=C(CNC(=O)c1ccc(S(=O)(=O)Nc2ccccc2Oc2ccc(Cl)cc2Cl)cc1)NC1CCNCC1 [Example 60, 4-[2-(2,4-Dichloro-phenoxy)-phenylsulfamoyl]-N-(piperidin-4-ylcarbamoylmethyl)-benzamide hydrochloride] |
| < 20 | < 20 | O=C(CNC(=O)c1ccc(S(=O)(=O)Nc2ccccc2Oc2ccc(Cl)cc2Cl)cc1)NCCCC1CCNCC1 [Example 61, 4-[2-(2,4-Dichloro-phenoxy)-phenylsulfamoyl]-N-[(3-piperidin-4-yl-propylcarbamoyl)-methyl]-benzamide hydrochloride] |
| < 20 | < 20 | O=C(CNC(=O)c1ccc(S(=O)(=O)Nc2ccccc2Oc2ccc(Cl)cc2Cl)cc1)NC1CCC(N2CCCCC2)CC1 (stereo not shown) [Example 62, 4-[2-(2,4-Dichloro-phenoxy)-phenylsulfamoyl]-N-[(4-piperidin-1-yl-cyclohexyl-carbamoyl)-methyl]-benzamide] |
| < 20 | < 20 | O=C(CNC(=O)c1ccc(S(=O)(=O)Nc2ccccc2Oc2ccc(Cl)cc2Cl)cc1)NCCCCN1CCCCC1 [Example 63, 4-[2-(2,4-Dichloro-phenoxy)-phenylsulfamoyl]-N-[(4-piperidin-1-yl-butylcarbamoyl)-methyl]-benzamide] |
| < 20 | < 20 | O=C(CNC(=O)c1ccc(S(=O)(=O)Nc2ccccc2Oc2ccccc2)cc1)NC1CCNCC1 [Example 66, 4-(2-Phenoxy-phenylsulfamoyl)-N-(piperidin-4-ylcarbamoylmethyl)-benzamide hydrochloride] |
